Results taken from US9725683B2, “Surfactants and methods of making and using same” (priority 2013, dated 2017).

Key:
[1] = Solubility of neutral fluorinated surfactants in water at 22° C. (capillary GC of saturated solutions); type: physicochemical; conditions: pure deionized water
Experimental: Various neutral fluorinated surfactants were tested to determine their solubility in pure deionized water.

[2] = Surface Tension Test Method (Kruss K12 tensiometer, Wilhelmy plate); type: physicochemical
Experimental: Surface Tension Test Method
Surface tension was measured using a K12 process tensiometer (available from Kruss GmbH of Hamburg, Germany) using a Wilhemly plate method with a platinum PL01 plate (available from Krüss GmbH). Forty milliliters of the solution to be tested were placed in a 60 mL glass snap cap jar with an inner diameter of approximately 1.5 inches.

[3] = aqueous TMAH, mole ratio 1.0, equivalent concentrations
[4] = aqueous TMAH, mole ratio 2.0, same concentrations
[5] = aqueous ammonium hydroxide, mole ratio 2.0, same concentrations

Q: With `O=S(=O)(N(CCO)CCO)C(F)(F)C(F)(F)C(F)(F)C(F)(F)F` [B, reference compound] as the molecule, how does the “% Soluble in water at 22 Deg C.” value [1] read?
A: The value was 0.0592%.

Q: Which “Surface tension in water compared” value [2, 3] does the source give for `O=S(=O)(NCCOCCOCCO)C(F)(F)C(F)(F)C(F)(F)C(F)(F)F` [VIII, C4F9SO2NH(CH2CH2OCH2CH2OCH2CH2OH)] here?
A: The value was “significantly lower surface tensions than H-FBSE”.

Q: And the “Surface tension in water compared” value [2, 4]?
A: The value was “significantly lower surface tension in water than H-FBSE”.

Q: What about the “Surface tension in water compared” value [2, 5] of the same molecule?
A: The value was “lowest surface tension in water of all the materials tested”.

Q: With `O=S(=O)(NCCO)C(F)(F)C(F)(F)C(F)(F)C(F)(F)F` [A, reference compound] as the molecule, how does the “Surface tension in water compared” value [2, 5] read?
A: The value was “roughly equivalent surface tensions”.

Q: Which “% Soluble in water at 22 Deg C.” value [1] does the source give for `CN(CCO)S(=O)(=O)C(F)(F)C(F)(F)C(F)(F)C(F)(F)F` [C, reference compound] here?
A: Its value is 0.118%.

Q: What does the source list for `O=S(=O)(NCCOCCO)C(F)(F)C(F)(F)C(F)(F)C(F)(F)F` [III, C4F9SO2N(H)CH2CH2OCH2CH2OH]?
A: Surface tension in water compared [2, 3]: significantly lower surface tensions than H-FBSE; Surface tension in water compared [2, 4]: significantly lower surface tension in water than H-FBSE; Surface tension in water compared [2, 5]: lower surface tension in water than the H-FBSE; melting point: 35.7 °C

Q: With `O=S(=O)(N(CCO)CCOCCO)C(F)(F)C(F)(F)C(F)(F)C(F)(F)F` [V, C4F9SO2N(CH2CH2OCH2CH2OH)(CH2CH2OH)] as the molecule, how does the “% Soluble in water at 22 Deg C.” value [1] read?
A: The value was 100 (miscible)^ %.

Q: And the melting point?
A: Its melting point is 45.1 °C.

Q: Which “% Soluble in water at 22 Deg C.” value [1] does the source give for `CN(CCOCCO)S(=O)(=O)C(F)(F)C(F)(F)C(F)(F)C(F)(F)F` [VI, C4F9SO2N(CH3)(CH2CH2OCH2CH2OH)] here?
A: The value was 0.232%.

Q: What about the melting point of the same molecule?
A: Its melting point is 80.5 °C.

Q: What does the source list for `CC(O)CNS(=O)(=O)C(F)(F)C(F)(F)C(F)(F)C(F)(F)F` (centres unmarked) [I, C4F9SO2N(H)CH2CH(CH3)OH]?
A: Surface tension in water compared [2, 5]: roughly equivalent surface tensions; melting point: 80.33 °C

Q: With `O=S(=O)(N(CCOCCO)CCOCCO)C(F)(F)C(F)(F)C(F)(F)C(F)(F)F` [IV, C4F9SO2N(CH2CH2OCH2CH2OH)2] as the molecule, how does the “% Soluble in water at 22 Deg C.” value [1] read?
A: Its value is 0.101%.
